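Where inhibition never reached the appropriate level, the endpoint shown equals the highest concentration tested. Otherwise, values were interpolated linearly from a five-concentration, 48-hour dose response in 96-well plates. GI50 = concentration required for 50% inhibition of growth.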 Active and inactive are the calls of the source. Rule as the data show it: active = GI50 up to about 1.1 µM and inactive = higher. Where a SMILES comes first, the peptide text is derived from it.
Tests used:
Assay in all cases: growth of human tumour cells (NCI), 48 h
[1] = system: A498
[2] = system: CAKI-1
[3] = system: HOP-62
[4] = system: M14
[5] = system: MCF7
[6] = system: NCI-H226
[7] = system: NCI-H460
[8] = system: NCI/ADR-RES
[9] = system: OVCAR-4
[10] = system: OVCAR-8
[11] = system: SF-295
[12] = system: SK-OV-3
[13] = system: SNB-75
[14] = system: TK-10
[15] = system: HOP-18
[16] = system: K562
[17] = system: KM12
[18] = system: RPMI-8226
[19] = system: SNB-78
[20] = system: XF498

SMILES | GI50 [1] | GI50 [2] | GI50 [3] | GI50 [4] | GI50 [5] | GI50 [6] | GI50 [7] | GI50 [8] | GI50 [9] | GI50 [10] | GI50 [11] | GI50 [12] | GI50 [13] | GI50 [14] | GI50 [15] | GI50 [16] | GI50 [17] | GI50 [18] | GI50 [19] | GI50 [20]
CO/N=C1\CC(NC(=O)CNC(=O)OC(C)(C)C)c2ccsc21 (stereo not given) | > 100 µM (inactive) | > 100 µM (inactive) | > 100 µM (inactive) | > 100 µM (inactive) | > 100 µM (inactive) | > 100 µM (inactive) | > 100 µM (inactive) | > 100 µM (inactive) | > 100 µM (inactive) | > 100 µM (inactive) | > 100 µM (inactive) | > 100 µM (inactive) | 53.1 µM (inactive) | > 100 µM (inactive) | – | – | – | – | – | –
COc1nc(NC2OCC(OC(C)=O)C(OC(C)=O)C2OC(C)=O)c(/N=C(\C)C(C)=O)c(=O)n1C (stereo not given) | > 100 µM (inactive) | > 100 µM (inactive) | – | > 100 µM (inactive) | – | 0.63 µM (active) | > 100 µM (inactive) | – | > 100 µM (inactive) | > 100 µM (inactive) | > 100 µM (inactive) | – | > 100 µM (inactive) | > 100 µM (inactive) | > 100 µM (inactive) | > 100 µM (inactive) | > 100 µM (inactive) | > 100 µM (inactive) | > 100 µM (inactive) | > 100 µM (inactive)
Nc1nc(=O)[nH]c2c1cnn2Cc1ccccc1 | > 100 µM (inactive) | > 100 µM (inactive) | – | > 100 µM (inactive) | – | 1.41 µM (inactive) | > 100 µM (inactive) | – | > 100 µM (inactive) | > 100 µM (inactive) | > 100 µM (inactive) | – | > 100 µM (inactive) | 1.35 µM (inactive) | > 100 µM (inactive) | > 100 µM (inactive) | > 100 µM (inactive) | > 100 µM (inactive) | 1.46 µM (inactive) | > 100 µM (inactive)
N#CCCN(CCC#N)c1ccc(/C=C(\NC(=O)c2cc([N+](=O)[O-])ccc2Cl)C(=O)Nc2ccccc2)cc1 | – | 62.1 µM (inactive) | 45.2 µM (inactive) | – | – | 64.9 µM (inactive) | – | – | > 100 µM (inactive) | 83.9 µM (inactive) | 64.6 µM (inactive) | > 100 µM (inactive) | – | 48 µM (inactive) | > 100 µM (inactive) | 6.82 µM (inactive) | > 100 µM (inactive) | > 100 µM (inactive) | > 100 µM (inactive) | > 100 µM (inactive)
Cc1cc(O)nc(NN2C(Cl)C(=O)C2c2ccc([N+](=O)[O-])cc2)n1 (stereo not given) | – | – | 7.76 µM (inactive) | 11 µM (inactive) | – | – | 4.04 µM (inactive) | – | 13.7 µM (inactive) | 17.8 µM (inactive) | – | – | 2.58 µM (inactive) | 15.8 µM (inactive) | 11.3 µM (inactive) | 3.1 µM (inactive) | > 10 µM (inactive) | 7.35 µM (inactive) | 7.36 µM (inactive) | –
CCOc1ccc(/C=C2\N=C(c3ccccc3)OC2=O)cc1 | – | – | > 100 µM (inactive) | > 100 µM (inactive) | > 100 µM (inactive) | > 100 µM (inactive) | > 100 µM (inactive) | > 100 µM (inactive) | > 100 µM (inactive) | > 100 µM (inactive) | > 100 µM (inactive) | > 100 µM (inactive) | 83 µM (inactive) | > 100 µM (inactive) | – | > 100 µM (inactive) | > 100 µM (inactive) | > 100 µM (inactive) | – | –
NCCCCC(N)C(=O)N1CCN(c2nc(N3CCCC3)c3nc(Cl)c(NCc4ccccc4)nc3n2)CC1 (stereo not given) | – | 31 µM (inactive) | 13.9 µM (inactive) | 19.1 µM (inactive) | 19.6 µM (inactive) | 20.8 µM (inactive) | 17.5 µM (inactive) | 44.6 µM (inactive) | 23.2 µM (inactive) | 14 µM (inactive) | 18.5 µM (inactive) | 20.2 µM (inactive) | 16.6 µM (inactive) | 19.2 µM (inactive) | – | 21.9 µM (inactive) | 21.8 µM (inactive) | 17.8 µM (inactive) | – | –
CCCCN1C(=O)NC(Cc2ccccc2)C1=O (stereo not given) | – | > 100 µM (inactive) | > 100 µM (inactive) | > 100 µM (inactive) | – | > 100 µM (inactive) | > 100 µM (inactive) | – | – | > 100 µM (inactive) | > 100 µM (inactive) | – | > 100 µM (inactive) | > 100 µM (inactive) | > 100 µM (inactive) | – | > 100 µM (inactive) | – | > 100 µM (inactive) | > 100 µM (inactive)
COC1OCC(O)C(NC(=O)N(C)N=O)C1O (stereo not given) | > 100 µM (inactive) | > 100 µM (inactive) | > 100 µM (inactive) | – | > 100 µM (inactive) | > 100 µM (inactive) | > 100 µM (inactive) | > 100 µM (inactive) | > 100 µM (inactive) | > 100 µM (inactive) | > 100 µM (inactive) | > 100 µM (inactive) | > 100 µM (inactive) | – | > 100 µM (inactive) | > 100 µM (inactive) | > 100 µM (inactive) | > 100 µM (inactive) | > 100 µM (inactive) | > 100 µM (inactive)
NC(=O)C1CCCN1C(=O)C(N)Cc1ccccc1 (stereo not drawn) (H-Phe-Pro-NH2; configuration not given here) | 76.7 µM (inactive) | > 100 µM (inactive) | > 100 µM (inactive) | > 100 µM (inactive) | > 100 µM (inactive) | – | > 100 µM (inactive) | > 100 µM (inactive) | > 100 µM (inactive) | > 100 µM (inactive) | > 100 µM (inactive) | – | – | > 100 µM (inactive) | – | > 100 µM (inactive) | – | > 100 µM (inactive) | – | –
COC(=O)C[C@](O)(CCC(C)(C)O)C(=O)O[C@@H]1C(OC)=C[C@]23CCCN2CCc2cc4c(cc2[C@H]13)OCO4 [HARRINGTONINE] | 0.073 µM (active) | 0.193 µM (active) | 0.166 µM (active) | – | 0.0288 µM (active) | 0.0306 µM (active) | < 0.0182 µM (active) | 7.74 µM (inactive) | 0.0785 µM (active) | 0.16 µM (active) | 0.186 µM (active) | 0.0984 µM (active) | 0.209 µM (active) | – | 0.229 µM (active) | 0.05 µM (active) | 0.0693 µM (active) | 0.0566 µM (active) | 0.256 µM (active) | < 0.01 µM (active)
